Source: the NIST ThermoML archive (doi:10.1016/j.fluid.2011.02.010)
± gives the expanded uncertainty stated by the source.

Assay: xn = mol fraction of the nth substance listed
Settings: 101 kPa, Liquid; for speed of sound: Frequency=2 MHz

CCCCn1cc[n+](C)c1.[Cl-] [1-butyl-3-methylimidazolium chloride] + C[S+](C)[O-]
Settings	mass density [kg/m3]	speed of sound [m/s]	viscosity [mPa·s]
298.15 K, x1 = 0.0111	1096.4 ± 10	1514 ± 9	2.13 ± 0.19
298.15 K, x1 = 0.0341	1096.96 ± 10	1544 ± 9	2.62 ± 0.22
298.15 K, x1 = 0.0713	1097.81 ± 10	1582 ± 9	3.43 ± 0.28
298.15 K, x1 = 0.1122	1098.51 ± 10	1618 ± 9	4.35 ± 0.33
298.15 K, x1 = 0.1731	1098.36 ± 10	1658 ± 10	5.83 ± 0.42
298.15 K, x1 = 0.2433	1097.41 ± 10	1694 ± 10	7.62 ± 0.54
298.15 K, x1 = 0.3032	1095.8 ± 10	1718 ± 10	9.17 ± 0.63
298.15 K, x1 = 0.3705	1093.86 ± 10	1742 ± 10	10.99 ± 0.75
298.15 K, x1 = 0.4746	1090.52 ± 10	1778 ± 10	13.86 ± 0.93
298.15 K, x1 = 0.5997	1086.4 ± 10	1810 ± 10	17.36 ± 1.1
298.15 K, x1 = 0.7115	1083.11 ± 10	1834 ± 11	20.5 ± 1.3
298.15 K, x1 = 0.843	1079.14 ± 10	1848 ± 11	24.28 ± 1.6
298.15 K, x1 = 0.9445	1076.25 ± 10	1856 ± 11	27.39 ± 1.8
298.15 K, x1 = 1	1074.43 ± 10	1868 ± 11	29.21 ± 1.9
303.15 K, x1 = 0.0111	1093.12 ± 10	1490 ± 9	1.93 ± 0.18
303.15 K, x1 = 0.0341	1094.05 ± 10	1522 ± 9	2.35 ± 0.21
303.15 K, x1 = 0.0713	1094.88 ± 10	1562 ± 9	3.04 ± 0.25
303.15 K, x1 = 0.1122	1095.16 ± 10	1598 ± 9	3.86 ± 0.3
303.15 K, x1 = 0.1731	1095.51 ± 10	1638 ± 10	5.12 ± 0.38
303.15 K, x1 = 0.2433	1094.39 ± 10	1672 ± 10	6.66 ± 0.48
303.15 K, x1 = 0.3032	1092.84 ± 10	1698 ± 10	8.04 ± 0.56
303.15 K, x1 = 0.3705	1090.91 ± 10	1718 ± 10	9.63 ± 0.66
303.15 K, x1 = 0.4746	1087.56 ± 10	1752 ± 10	12.14 ± 0.82
303.15 K, x1 = 0.5997	1083.53 ± 10	1792 ± 10	15.22 ± 1
303.15 K, x1 = 0.7115	1080.09 ± 10	1820 ± 10	17.99 ± 1.2
303.15 K, x1 = 0.843	1076.19 ± 10	1844 ± 11	21.34 ± 1.4
303.15 K, x1 = 0.9445	1073.27 ± 10	1852 ± 11	24.12 ± 1.6
303.15 K, x1 = 1	1071.38 ± 10	1860 ± 11	25.72 ± 1.7
308.15 K, x1 = 0.0111	1087.12 ± 10	1478 ± 9	1.77 ± 0.17
308.15 K, x1 = 0.0341	1088.6 ± 10	1510 ± 9	2.12 ± 0.19
308.15 K, x1 = 0.0713	1089.65 ± 10	1550 ± 9	2.68 ± 0.23
308.15 K, x1 = 0.1122	1090.4 ± 10	1586 ± 9	3.31 ± 0.27
308.15 K, x1 = 0.1731	1090.8 ± 10	1630 ± 10	4.34 ± 0.33
308.15 K, x1 = 0.2433	1089.91 ± 10	1664 ± 10	5.53 ± 0.41
308.15 K, x1 = 0.3032	1088.61 ± 10	1690 ± 10	6.63 ± 0.47
308.15 K, x1 = 0.3705	1086.93 ± 10	1712 ± 10	7.91 ± 0.55
308.15 K, x1 = 0.4746	1083.87 ± 10	1748 ± 10	9.96 ± 0.68
308.15 K, x1 = 0.5997	1080.1 ± 10	1786 ± 10	12.5 ± 0.84
308.15 K, x1 = 0.7115	1076.93 ± 10	1812 ± 10	14.79 ± 0.99
308.15 K, x1 = 0.843	1072.98 ± 10	1832 ± 11	17.57 ± 1.2
308.15 K, x1 = 0.9445	1070.09 ± 10	1840 ± 11	19.84 ± 1.3
308.15 K, x1 = 1	1068.32 ± 10	1848 ± 11	21.21 ± 1.4
318.15 K, x1 = 0.0111	1077.1 ± 10	1450 ± 9	1.51 ± 0.16
318.15 K, x1 = 0.0341	1078.9 ± 10	1484 ± 9	1.82 ± 0.18
318.15 K, x1 = 0.0713	1080.54 ± 10	1520 ± 9	2.3 ± 0.2
318.15 K, x1 = 0.1122	1081.62 ± 10	1550 ± 9	2.87 ± 0.24
318.15 K, x1 = 0.1731	1082.42 ± 10	1592 ± 9	3.76 ± 0.3
318.15 K, x1 = 0.2433	1081.92 ± 10	1634 ± 10	4.81 ± 0.36
318.15 K, x1 = 0.3032	1080.89 ± 10	1662 ± 10	5.78 ± 0.42
318.15 K, x1 = 0.3705	1079.44 ± 10	1688 ± 10	6.93 ± 0.49
318.15 K, x1 = 0.4746	1076.76 ± 10	1720 ± 10	8.79 ± 0.61
318.15 K, x1 = 0.5997	1073.27 ± 10	1758 ± 10	11.1 ± 0.76
318.15 K, x1 = 0.7115	1070.22 ± 10	1788 ± 10	13.18 ± 0.89
318.15 K, x1 = 0.843	1066.58 ± 10	1808 ± 10	15.7 ± 1
318.15 K, x1 = 0.9445	1063.76 ± 10	1814 ± 10	17.76 ± 1.2
318.15 K, x1 = 1	1062.14 ± 10	1820 ± 11	18.97 ± 1.2
328.15 K, x1 = 0.0111	1067.04 ± 10	1422 ± 9	1.17 ± 0.13
328.15 K, x1 = 0.0341	1069.24 ± 10	1454 ± 9	1.44 ± 0.15
328.15 K, x1 = 0.0713	1071.41 ± 10	1490 ± 9	1.89 ± 0.18
328.15 K, x1 = 0.1122	1072.82 ± 10	1520 ± 9	2.37 ± 0.21
328.15 K, x1 = 0.1731	1074.01 ± 10	1564 ± 9	3.14 ± 0.26
328.15 K, x1 = 0.2433	1073.91 ± 10	1604 ± 9	4.06 ± 0.31
328.15 K, x1 = 0.3032	1073.16 ± 10	1630 ± 10	4.89 ± 0.37
328.15 K, x1 = 0.3705	1071.9 ± 10	1658 ± 10	5.92 ± 0.43
328.15 K, x1 = 0.4746	1069.49 ± 10	1694 ± 10	7.6 ± 0.54
328.15 K, x1 = 0.5997	1066.39 ± 10	1730 ± 10	9.68 ± 0.67
328.15 K, x1 = 0.7115	1063.48 ± 10	1760 ± 10	11.56 ± 0.78
328.15 K, x1 = 0.843	1060.06 ± 10	1788 ± 10	13.82 ± 0.93
328.15 K, x1 = 0.9445	1057.44 ± 10	1796 ± 10	15.65 ± 1
328.15 K, x1 = 1	1055.89 ± 10	1804 ± 10	16.74 ± 1.1
